Source: patent US20220241349A1, “METHOD FOR PRODUCING MARINE ALGAE-DERIVED AGAROTRIOSE, AND USE THEREOF AS PREBIOTIC” (Korea University Research and Business Foundation, priority 2017, published 2022)

How the values were obtained:
[1] = Stability test against artificial gastric juice; format: in vitro ADME; conditions: 37° C., 3 hours, TLC and HPLC
From the text: In order to test whether agarotriose could reach the intestines without being degraded, agarotriose was reacted in artificial gastric juice for each time, and then it was confirmed whether agarotriose was degraded, using TLC and HPLC.

[2] = system: Bifidobacterium longum subsp. infantis ATCC 15697 strain; experiment: Agarotriose fermentation profile under test tube condition; format: cell-based; conditions: 5 g/L agarotriose as carbon source
Experimental: In order to monitor fermentation products, a Bifidobacterium longum subsp. Infantis ATCC 15697 strain was cultured under a test tube condition.

[3] = system: crude enzyme solution of a Bifidobacterium longum subsp. infantis ATCC 15697 strain; experiment: Degradation experiment using crude enzyme solution; format: biochemical; conditions: 2 mg/mL crude enzyme, 2 mg/mL substrate, 30° C., pH 7.0, 2 hours
Experimental: In order to confirm the metabolic pathway of agarotriose, an experiment was performed on a crude enzyme solution of a Bifidobacterium longum subsp. infantis ATCC 15697 strain. For this purpose, cells and the medium were separated by centrifugation (14,000 rpm, 5 minutes, 4° C.) of a culture solution of Bifidobacterium longum subsp. infantis ATCC 15697 cultured under an agarotriose condition. An extracellular crude enzyme was obtained by ammonium sulfate precipitation of a supernatant. Further, for a cell-free extract including an intracellular crude enzyme, a supernatant crude enzyme was obtained by re-suspending cells in a 20 mM Tris-HCl buffer, and then lysing the cells by sonication, and centrifuging the lysate. During the crude enzyme experiment, 2 mg/mL of the crude enzyme and 2 mg/mL of agarotriose as a substrate were used to perform a reaction under an enzymatic reaction condition of 30° C. and 200 rpm in a 20 mM Tris-HCl buffer (pH 7.0) for 2 hours.

[4] = system: Bifidobacterium longum subsp. infantis ATCC 15697 strain; experiment: Cell growth with each purified sugar as single carbon source (Bioscreen C); format: cell-based; conditions: 5 g/L of each purified sugar, 37° C.
Experimental: In this case, as a culture composition, 10 g/L of BactoPeptone, 5 g/L of a yeast extract, 2 g/L of K2HPO4 anhydride, 5 g/L of Na acetate anhydride, 2 g/L of NH4 citrate tribasic, 0.2 g/L of Mg sulfate heptahydrate, 0.05 g/L of Mn sulfate, 1 mL/L of Tween 80 (polysorbate 80), 0.5 g/L of cysteine, and 5 g/L of each purified sugar were used and cultured at 37° C.

B. bifidum DSM 20082 = experiment: Fermentation ability of agarotriose as single carbon source; format: cell-based
Experimental: (§1) In order to confirm whether agarotriose also had prebiotic effects on probiotic microorganisms other than a Bifidobacterium longum subsp. infantis ATCC 15697 strain, Bifidobacterium longum subsp. infantis ATCC 17930, Bifidobacterium longum subsp. infantis ATCC 15702, B. bifidum DSM 20082, and B. kashiwanohense DSM 21854 were cultured under agarotriose single carbon source conditions.

[5] = system: B. kashiwanohense DSM 21854; experiment: as above; format: cell-based
Experimental: as §1

[6] = system: Bifidobacterium longum subsp. infantis ATCC 15702; experiment: as above; format: cell-based
Experimental: as §1

[7] = system: Bifidobacterium longum subsp. infantis ATCC 17930; experiment: as above; format: cell-based
Experimental: as §1

agarotriose remained [1]	SMILES	fate of the sugar during fermentation [2]	degradation of the substrate by crude enzyme [3]	fermentation (cell growth) of the sugar as single carbon source [4]	metabolism of agarotriose (B. bifidum DSM 20082)	metabolism of agarotriose [5]	metabolism of agarotriose [6]	metabolism of agarotriose [7]
≥ 80%	OC[C@H]1O[C@@H](O[C@H]2[C@H]3OC[C@@H]2O[C@@H](O[C@@H]2[C@@H](O)[C@H](O)O[C@H](CO)[C@@H]2O)[C@H]3O)[C@H](O)[C@@H](O)[C@H]1O [agarotriose]	degraded agarotriose into galactose and neoagarobiose	degrading agarotriose into galactose and neoagarobiose occurred in the cell-free extract	selectively fermented	metabolized agarotriose and degraded agarotriose into galactose and neoagarobiose	metabolized agarotriose and degraded agarotriose into galactose and neoagarobiose	metabolized agarotriose and degraded agarotriose into galactose and neoagarobiose	metabolized agarotriose and degraded agarotriose into galactose and neoagarobiose
–	OC[C@H]1OC(O)[C@H](O)[C@@H](O[C@@H]2O[C@H]3CO[C@@H]([C@@H]2O)[C@@H]3O)[C@H]1O (stereo partly shown) [neoagarobiose, reference compound]	secreted and accumulated outside the cells without being degraded in the cells any more	not exhibited	–	–	–	–	–
